Assay results taken from ChEMBL document CHEMBL3507680, “University of Dundee, Gates Library screen for HepG2 cell viability”.

Test: Human HepG2 cell viability assay in 384 well format
Type: toxicity, cell-based
Design: dose 125 nL, time 70.5 hour; cytotoxicity at 70.5 h: concentration not given beside the values
Settings: HepG2 cells, read-out: Inhibition

Row | SMILES | cytotoxicity at 70.5 h [%]
1 | Cc1cccc(NC(=O)[C@@H]2CCCN2CC(=O)Nc2ccccc2)n1 | -6.38
2 | CCCS(=O)(=O)N1CCC(NC(=O)c2cc3ccccc3s2)CC1 | -6.56
3 | NS(=O)(=O)N1CCC(C(=O)Nc2cccc(OC(F)F)c2)CC1 | 1.39
4 | NC(=O)C(NC(=O)Cc1cnn(-c2ccccc2)n1)c1ccccc1 (stereo unspecified) | -0.915
5 | CCC(=O)NCC(=O)NCC1(c2c(F)cccc2F)CCCC1 | -4.06
6 | CC(=O)N(C)CC(=O)NCC1(c2c(F)cccc2F)CCCC1 | 0.534
7 | O=C(Nc1nnc(N2CCCCC2)[nH]1)c1cccs1 | -0.727
8 | Cc1occc1CNC(=O)C1(C)CCCN1C(=O)c1ccccc1 (stereo unspecified) | 2.74
9 | CCCNC(=O)CCNC(=O)N1CCc2c(F)ccc(F)c2C1 | 3.2
10 | O=C(Cc1cnn(-c2ccccc2)n1)NC(C1CC1)C1CC1 | 0.511
11 | COC(=O)CCCNC(=O)N1CCc2c(F)ccc(F)c2C1 | -1.47
12 | CCn1cc(CNc2ccc(F)c(N3CCCS3(=O)=O)c2)cn1 | 0.531
13 | Cc1occc1CNC(=O)C1(C)CCCN(C(=O)c2ccccc2)C1 (stereo unspecified) | 0.298
14 | Cc1cc(=O)n(C)cc1NC(=O)Cc1cccc(F)c1 | -2.92
15 | CC(NCC1CCN(CCO)CC1)c1ccc(C(F)(F)F)cc1 (stereo unspecified) | 14
16 | CC(C)(C)CCCC(=O)NS(=O)(=O)CC1CC1 | -0.428
17 | CC(C)(CO)CCCNC(=O)N1CCc2c(F)ccc(F)c2C1 | -2.98
18 | CC(C)c1ocnc1C(=O)N1CCCC(c2ccn[nH]2)C1 (stereo unspecified) | -3.87
19 | Cc1nc2n(n1)CC(NCC(=O)NCC1(c3ccccc3)CC1)CC2 (stereo unspecified) | -3.45
20 | Cn1ccnc1CNc1ccc(F)c(N2CCCS2(=O)=O)c1 | 0.314
21 | OC(CN(Cc1ccccc1)Cc1ccncc1)c1ccco1 (stereo unspecified) | 26
22 | OC[C@@H](O)CN(CCC(F)(F)F)c1ncccn1 | 5.67
23 | OC(CN(Cc1ccccc1)Cc1ccon1)c1ccco1 (stereo unspecified) | -7.07

Row | SMILES | cytotoxicity at 70.5 h [%]
24 | CCCN1CCCN(CCCOc2cccc(C#N)c2)CC1 | -1.9
25 | CCn1c(CN(C)C(=O)c2ccc(N(C)C)nc2)nc2ccccc21 | -14
26 | CC(C)(C)C(=O)N1CCN(CCOc2cccc(C#N)c2)CC1 | -5.91
27 | CCn1c(CNC(=O)c2ccc(N(C)C)nc2)nc2ccccc21 | -8.62
28 | Cc1cc(C)c2c(c1)C(NC(=O)CSc1nnc[nH]1)CCO2 (stereo unspecified) | 10.8
29 | CN(Cc1cccs1)c1nc2c(cnn2C(C)(C)C)c(=O)[nH]1 | -6.5
30 | Cc1nc(-c2ccsc2)sc1C(=O)N1CCn2c(C)nnc2C1 | -0.696
31 | CCC(Nc1ccc(Oc2ccccc2OC)cc1)C(N)=O (stereo unspecified) | -4.77
32 | CCC(Nc1cccc(Oc2ccc(C#N)cc2)c1)C(N)=O (stereo unspecified) | -4.69
33 | Cc1nc(CN(C)c2nc3c(cnn3C(C)(C)C)c(=O)[nH]2)cs1 | 8.98
34 | Cc1cccc(S(=O)(=O)NC(=O)c2ccc3c(c2)nnn3C)c1 | -5.75
35 | CC1(C(=O)Nc2ccc(F)c(-n3cccc3)c2)CCOCC1 | -6.66
36 | Cc1cc(C(=O)NC2CCN(C(=O)Nc3cccnc3)CC2)c(C)o1 | -9.09
37 | Cc1cnc(C(C)(C)NC(=O)NCc2cccnc2OC(C)C)s1 | 2.79
38 | CN(C(=O)CNc1ccc(C#N)cc1)C1CCCCC1 | -3.87
39 | Cc1cc(C(=O)N(C)CC(F)(F)C(F)(F)F)ccc1-n1cncn1 | 2.03
40 | Cc1nnc(CN(C)CCOc2cccc(Cl)c2)o1 | -10.9
41 | COc1ccc(C)cc1CN(Cc1nc(C)c(C)o1)C1CCN(C)C1 (stereo unspecified) | 3.17
42 | CCn1c(CN(C)C(=O)c2ccc(O)nc2)nc2ccccc21 | -5.75
43 | COCCN(Cc1cnn(C)c1)Cc1ccc(C)o1 | -9.85
44 | Cc1nnc(CN(C)CCCOc2cccc(Cl)c2)o1 | 0.527
45 | CS(=O)(=O)NC1CCN(C(=O)COCc2ccccc2)CC1 | 18.3
46 | CC(C)(C)Cc1noc2ncc(C(=O)N3CCSCC3)cc12 | -7.45
